Laboratory results taken from patent publication US11648254B2 (Kumquat Biosciences Inc., priority 2021, dated 2023).
pIC50: −log10 of the molar value. Where two headings read alike, the source gives them in different places.

How the values were obtained:
SOS1 = SOS1 (Homo sapiens (Human), UniProt Q07889); experiment: Ras-SOS interaction assay (HTRF); format: biochemical
[1] = test system: MIA PaCa-2 cells (K-Ras G12C); experiment: Ras-SOS cellular growth inhibition assay (CellTiter-Glo, 3D); format: cell-based; settings: Homo sapiens
Procedure, shortened: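 MIA PaCa-2 cells grown in ultra-low-attachment plates (3D) in DMEM/Ham's F12 with 10% FCS and 2.5% horse serum, treated the day after seeding with a 9-point 3-fold compound series for about 5 days. Viability by CellTiter-Glo luminescence; IC50 from four-parameter fit.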

[2] = test system: NCI-H1975 cells (EGFR T790M L858R); experiment: EGFR-SOS cellular inhibition assay (CellTiter-Glo, 3D); format: cell-based; settings: Homo sapiens
[3] = K-RasG13D utilized, read-out: IC50 inhibition of SOS
[4] = K-RasG13D, read-out: IC50 value against SOS1
[5] = MIA PaCa-2, 120 h, MIA PaCa-2, 3D proliferation, about 5 days, read-out: Bio-Cell-Prolif-3D (MiaPaca2 IC50)
[6] = MIA PaCa-2, MIA PaCa-2, read-out: IC50 in inhibiting MIA PaCa-2 cell growth
[7] = 120 h, NCI-H1975, 3D proliferation, about 5 days, read-out: Bio-Cell-Prolif-3D (H1975 IC50)
[8] = NCI-H1975, EGFR T790M L858R, read-out: IC50 in inhibiting growth of NCI-H1975 cell line

SOS1, sequence (Q07889 564-1049): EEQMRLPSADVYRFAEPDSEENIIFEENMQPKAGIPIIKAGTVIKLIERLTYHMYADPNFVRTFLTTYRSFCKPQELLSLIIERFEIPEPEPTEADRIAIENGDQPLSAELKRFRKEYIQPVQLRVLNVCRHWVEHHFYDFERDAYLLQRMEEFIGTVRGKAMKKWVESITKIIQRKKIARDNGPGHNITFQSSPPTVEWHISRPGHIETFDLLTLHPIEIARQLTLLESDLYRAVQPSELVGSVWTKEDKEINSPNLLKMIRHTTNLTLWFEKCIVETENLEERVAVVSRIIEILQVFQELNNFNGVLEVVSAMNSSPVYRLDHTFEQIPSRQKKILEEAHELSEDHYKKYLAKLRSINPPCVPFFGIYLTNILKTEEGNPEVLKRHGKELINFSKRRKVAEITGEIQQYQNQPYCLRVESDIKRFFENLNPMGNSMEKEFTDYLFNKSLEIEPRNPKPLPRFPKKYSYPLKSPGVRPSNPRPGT

Compound	pIC50 (SOS1; [3])	pIC50 (SOS1; [4])	pIC50 [1, 5]	pIC50 [1, 6]	pIC50 [2, 7]	pIC50 [2, 8]
CCN1CCN(c2cc3c(N[C@H](C)c4cccc(C(F)F)c4F)nc(C)nc3nc2OC)CC1 [Compound 115, (R)-N-(1-(3-(difluoromethyl)-2-fluorophenyl)ethyl)-6-(4-ethylpiperazin-1-yl)-7-methoxy-2-methylpyrido[2,3-d]pyrimidin-4-amine]	> 7.00	> 7.30	≥ 6.00	> 6.30	≥ 6.00	
COc1nc2nc(C)nc(N[C@H](C)c3cccc(C(F)(F)CCC4CN(C)C4)c3F)c2cc1C1(C#N)CC1 [Compound 177, (R)-1-(4-((1-(3-(1,1-difluoro-3-(1-methylazetidin-3-yl)propyl)-2-fluorophenyl)ethyl)amino)-7-methoxy-2-methylpyrido[2,3-d]pyrimidin-6-yl)cyclopropane-1-carbonitrile]	> 7.00	> 7.30	≥ 6.00	> 6.30	≥ 6.00	> 6.30
COCCOc1nc2nc(C)nc(N[C@H](C)c3cccc(C(F)F)c3F)c2cc1C1CCS(=N)(=O)CC1 (stereo partly drawn) [Compound 368, (R)-4-(4-((1-(3-(difluoromethyl)-2-fluorophenyl)ethyl)amino)-7-(2-methoxyethoxy)-2-methylpyrido[2,3-d]pyrimidin-6-yl)-1-iminohexahydro-1l6-thiopyran 1-oxide]	> 7.00	> 7.30	5.00 to 6.00		≥ 6.00	> 6.30
Cc1c([C@@H](C)Nc2ncnc3nc(Cl)c(N4CCS(=O)(=O)CC4)cc23)cccc1C(F)(F)F [Compound 328, (R)-4-(7-chloro-4-((1-(2-methyl-3-(trifluoromethyl)phenyl)ethyl)amino)pyrido[2,3-d]pyrimidin-6-yl)thiomorpholine 1,1-dioxide]	> 7.00	> 7.30	≥ 6.00	> 6.30	≥ 6.00	> 6.30
COc1nc2nc(C)nc(N[C@H](C)c3cccc(C(F)(F)CO)c3F)c2cc1N1CCS(=O)(=O)CC1 [Compound 307, (R)-4-(4-((1-(3-(1,1-difluoro-2-hydroxyethyl)-2-fluorophenyl)ethyl)amino)-7-methoxy-2-methylpyrido[2,3-d]pyrimidin-6-yl)thiomorpholine 1,1-dioxide]	> 7.00	> 7.30	≥ 6.00	> 6.30	≥ 6.00	
C[C@@H](Nc1ncnc2nc(Cl)c(N3CCS(=O)(=O)CC3)cc12)c1cccc(C(F)(F)F)c1F [Compound 330, (R)-4-(7-chloro-4-((1-(2-fluoro-3-(trifluoromethyl)phenyl)ethyl)amino)pyrido[2,3-d]pyrimidin-6-yl)thiomorpholine 1,1-dioxide]	> 7.00	> 7.30	≥ 6.00	> 6.30	≥ 6.00	> 6.30
COc1nc2ncnc(N[C@H](C)c3cccc(C(F)(F)CO)c3)c2cc1N1CCN(C(C)C)CC1 [Compound 205, (R)-2,2-difluoro-2-(3-(1-((6-(4-isopropylpiperazin-1-yl)-7-methoxypyrido[2,3-d]pyrimidin-4-yl)amino)ethyl)phenyl)ethan-1-ol]	> 7.00	> 7.30	≥ 6.00	> 6.30	≥ 6.00	> 6.30
COc1nc2ncnc(N[C@H](C)c3cccc(C(F)(F)F)c3C)c2cc1N1CCS(=O)(=O)CC1 [Compound 381, (R)-4-(7-methoxy-4-((1-(2-methyl-3-(trifluoromethyl)phenyl)ethyl)amino)pyrido[2,3-d]pyrimidin-6-yl) thiomorpholine 1,1-dioxide]	> 7.00	> 7.30	≥ 6.00	> 6.30	≥ 6.00	> 6.30
COc1nc2ncnc(N[C@H](C)c3cccc(C(F)(F)C4CCN(C(C)C)CC4)c3F)c2cc1N1CCN(C(C)C)CC1 [Compound 263, (R)—N-(1-(3-(difluoro(1-isopropylpiperidin-4-yl)methyl)-2-fluorophenyl)ethyl)-6-(4-isopropylpiperazin-1-yl)-7-methoxypyrido[2,3-d]pyrimidin-4-amine]	> 7.00	> 7.30	≥ 6.00	> 6.30	≥ 6.00	> 6.30
Cc1nc(N[C@H](C)c2cccc(C(F)F)c2F)c2cc(C3CCS(=N)(=O)CC3)c(OCCN(C)C)nc2n1 (stereo partly drawn) [Compound 250, (R)-4-(4-((1-(3-(difluoromethyl)-2-fluorophenyl)ethyl)amino)-7-(2-(dimethylamino)ethoxy)-2-methylpyrido[2,3-d]pyrimidin-6-yl)-1-iminohexahydro-116-thiopyran 1-oxide]	> 7.00	> 7.30	< 5.00		5.00 to 6.00	
Cc1nc(N[C@H](C)c2cccc(C(F)F)c2F)c2cc(S(=O)(=O)C3CCN(C)CC3)c(C)nc2n1 [Compound 138, (R)-N-(1-(3-(difluoromethyl)-2-fluorophenyl)ethyl)-2,7-dimethyl-6-((1-methylpiperidin-4-yl)sulfonyl)pyrido[2,3-d]pyrimidin-4-amine]		> 7.30	≥ 6.00	> 6.30	≥ 6.00	> 6.30
Cc1nc(N[C@H](C)c2cccc(C(F)F)c2F)c2cc(C3CCS(=O)(=O)CC3)c(Cl)nc2n1 [Compound 389, (R)-4-(7-chloro-4-((1-(3-(difluoromethyl)-2-fluorophenyl)ethyl)amino)-2-methylpyrido[2,3-d]pyrimidin-6-yl)tetrahydro-2H-thiopyran 1,1-dioxide]	> 7.00	> 7.30	≥ 6.00	> 6.30	≥ 6.00	> 6.30
COc1nc2nc(C)nc(N[C@H](C)c3cccc(C(F)(F)CCC4CN(C(C)C)C4)c3F)c2cc1C1(C#N)CC1 [Compound 176, (R)-1-(4-((1-(3-(1,1-difluoro-3-(1-isopropylazetidin-3-yl)propyl)-2-fluorophenyl)ethyl)amino)-7-methoxy-2-methylpyrido[2,3-d]pyrimidin-6-yl)cyclopropane-1-carbonitrile]	> 7.00	> 7.30	≥ 6.00	> 6.30	≥ 6.00	> 6.30
CCN1CCN(c2cc3c(N[C@H](C)c4cccc(C(F)F)c4F)nc(C)nc3nc2NC2COC2)CC1 [Compound 188, (R)-N4-(1-(3-(difluoromethyl)-2-fluorophenyl)ethyl)-6-(4-ethylpiperazin-1-yl)-2-methyl-N7-(oxetan-3-yl)pyrido[2,3-d] pyrimidine-4,7-diamine]	> 7.00	> 7.30	5.00 to 6.00		≥ 6.00	> 6.30
COc1nc2nc(C)nc(N[C@H](C)c3cccc(C(F)F)c3F)c2cc1N1CCN(C)CC1 [Compound 123, (R)-N-(1-(3-(difluoromethyl)-2-fluorophenyl)ethyl)-7-methoxy-2-methyl-6-(4-methylpiperazin-1-yl)pyrido[2,3-d] pyrimidin-4-amine]		> 7.30	≥ 6.00	> 6.30	≥ 6.00	
